In US6518303B2, “2-phenylpyran-4-one derivatives” (Almirall Prodesfarma S.A., priority 1999, dated 2003):

Tests used:
[1] = biological target: T1, COX-1 (Homo sapiens, UniProt P23219); assay: COX-1 activity in human whole blood (TXB2, calcium ionophore A23187); type: cell-based; conditions: 1 h at 37° C., TXB2 ELISA
T1 construct: Fresh blood from healthy volunteers; endogenous in cells; host or cells: fresh heparinized human whole blood stimulated with calcium ionophore A23187
Procedure: For the COX-1 activity determination, 500 μl aliquots of blood were incubated with either 5 μl vehicle (dimethylsulphoxide) or 5 μl of a test compound for 1 h at 37° C. […] Plasma was separated by centrifugation (10 min at 13000 rpm) and kept at −30° C. until TXB2 levels were measured using an enzyme immunoassay kit (ELISA). The effect of the compounds were evaluated by incubating each compound at five to six different concentrations with triplicate determinations. IC50 values were obtained by non-linear regression using InPlot, GraphPad software on an IBM computer.

[2] = biological target: T2, COX-2 (Homo sapiens, UniProt P35354); assay: COX-2 activity in human whole blood (PGE2, LPS-induced); type: cell-based; conditions: for IC50: human whole blood, LPS 10 μg/ml 24 h at 37° C., PGE2 ELISA; for Ratio COX-1/COX-2: ratio of whole blood IC50 values
T2 construct: incubated in the presence of LPS (10 μg/ml) for 24 h at 37° C. in order to induce The COX-2 expression; endogenous in cells; host or cells: fresh heparinized human whole blood, COX-2 induced with LPS for 24 h
T2 sequence (P35354 18-604): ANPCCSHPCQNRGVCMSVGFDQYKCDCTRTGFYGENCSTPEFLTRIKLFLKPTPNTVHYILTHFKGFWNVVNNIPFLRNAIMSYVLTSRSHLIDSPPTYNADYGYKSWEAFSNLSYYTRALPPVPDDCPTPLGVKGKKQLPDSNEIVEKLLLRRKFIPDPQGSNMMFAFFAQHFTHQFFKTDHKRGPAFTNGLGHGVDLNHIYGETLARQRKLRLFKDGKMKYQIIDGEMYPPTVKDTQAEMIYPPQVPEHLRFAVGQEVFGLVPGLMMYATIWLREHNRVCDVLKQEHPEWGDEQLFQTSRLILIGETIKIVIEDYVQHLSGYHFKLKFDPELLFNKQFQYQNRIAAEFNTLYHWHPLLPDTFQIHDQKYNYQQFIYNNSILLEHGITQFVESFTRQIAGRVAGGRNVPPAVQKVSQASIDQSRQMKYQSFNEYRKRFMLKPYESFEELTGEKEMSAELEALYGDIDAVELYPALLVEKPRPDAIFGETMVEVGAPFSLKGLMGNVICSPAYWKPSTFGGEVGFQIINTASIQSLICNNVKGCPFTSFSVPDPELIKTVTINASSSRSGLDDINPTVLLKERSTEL
Procedure: Plasma was separated by centrifugation (10 min at 13000 rpm.) and kept at −30° C. until PGE2 levels were measured using an enzyme immunoassay kit (ELISA). The effects of inhibitors were studied by incubating each compound (5 μl aliquots) at five to six different concentrations with triplicate determinations in the presence of LPS for 24 hours. IC50 values were obtained by non-linear regression using InPlot, GraphPad software on an IBM computer.

[3] = test system: adjuvant arthritis (hind paw volume) in male Wistar rats; assay: Anti-inflammatory activity (adjuvant arthritis); type: in vivo, rat; conditions: dose 1 mg/kg p.o. once daily for 7 days (days 14-20), measured day 21
[4] = test system: intestinal ulcers and hematocrit in male Wistar rats; assay: Ulcerogenic activity; type: in vivo, rat; parameters: key to Lesion index PU (perforated ulcers) / Lesion index NPU (non-perforated ulcers): 0:no ulcers; 1:<10 ulcers; 2:10-25 ulcers; 3:>25 ulcers; conditions: for Lesion index NPU (non-perforated ulcers) / Lesion index PU (perforated ulcers): index 0 to 3
Procedure: Animals: Male Wistar rate (Interfauna, U.K., Ltd.) weighing about 150-175 g were used. Animals were maintained on a 12:12 hour light-dark cycle (lights on at 7:00 am) at room temperature (22±1° C.). Food and water were allowed ad libitum.
Procedure: The compounds were administered by the oral route once a day for 4 consecutive days. The body weight of each rat was assessed every day before drug administration. The animals were anesthesized 24 h after the last dosing and 1 ml of blood was extracted by cardiac puncture using heparin (10 U/ml) as anticoagulant. The percentage of hematocrit was measured. The intestines were removed, opened longitudinally and gently washed. The macroscopic severity of the intestinal erosions was assessed using a parametric scale, evaluating the number of the perforated and non-perforated intestinal ulcers by means of a lesion index ranging from 0 to 3 (0:no ulcers, 1:<10 ulcers, 2:10-25 ulcers to 3:>25 ulcers). No gastric ulcers are observed using this protocol.
The treatments were randomized in each experiment. The results were compared with those obtained in the vehicle-treated group using the ANOVA test.

[5] = dose 100 mg/kg oral once a day for 4 days
[6] = dose 10 mg/kg oral once a day for 4 days

T1 sequence (P23219 24-599): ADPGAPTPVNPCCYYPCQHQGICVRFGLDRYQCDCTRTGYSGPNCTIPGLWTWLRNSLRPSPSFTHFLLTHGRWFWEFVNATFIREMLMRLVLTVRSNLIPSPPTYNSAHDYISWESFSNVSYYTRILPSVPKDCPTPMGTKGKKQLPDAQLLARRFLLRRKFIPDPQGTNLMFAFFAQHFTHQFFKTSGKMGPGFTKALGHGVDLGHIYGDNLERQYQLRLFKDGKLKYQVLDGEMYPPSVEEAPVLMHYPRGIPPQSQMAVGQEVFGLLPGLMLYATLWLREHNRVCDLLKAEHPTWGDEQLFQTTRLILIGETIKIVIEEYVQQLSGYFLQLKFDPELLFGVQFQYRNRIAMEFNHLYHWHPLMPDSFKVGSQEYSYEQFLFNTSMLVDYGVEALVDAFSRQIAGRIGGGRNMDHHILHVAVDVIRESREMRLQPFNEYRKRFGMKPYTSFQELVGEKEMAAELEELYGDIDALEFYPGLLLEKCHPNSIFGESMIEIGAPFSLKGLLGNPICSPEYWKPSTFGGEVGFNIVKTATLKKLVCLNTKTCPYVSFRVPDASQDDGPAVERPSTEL

IC50 [1] [µM]	IC50 [2] [nM]	Ratio COX-1/COX-2 [2]	melting point [°C]	Structure (SMILES)	% Inhibition of inflammation (paw volume) [3]	Hematocrit [4, 5] [%]	Lesion index NPU (non-perforated ulcers) [4, 5]	Lesion index PU (perforated ulcers) [4, 5]	Hematocrit [4, 6] [%]	Lesion index NPU (non-perforated ulcers) [4, 6]	Lesion index PU (perforated ulcers) [4, 6]
22	150	147	191	Cc1cc(=O)c(Oc2ccc(F)cc2F)c(-c2ccc(S(C)(=O)=O)cc2)o1 [Compound 45, 3-(2,4-difluorophenoxy)-2-(4-methanesulfonylphenyl)-6-methylpyran-4-one]	74 (1) %	44.4 ± 0.9	0	0	–	–	–
37.1	–	–	156	Cc1cc(=O)c(-c2ccc(Cl)c(Cl)c2)c(-c2ccc(S(C)(=O)=O)cc2)o1 [Compound 22, 3-(3,4-dichlorophenyl)-2-(4-methanesulfonylphenyl)-6-methylpyran-4-one]	69 (1) %	44.4 ± 0.3	–	–	–	–	–
> 100	960	>104	189	Cc1cc(=O)c(Oc2ccc(F)cc2)c(-c2ccc(S(C)(=O)=O)cc2)o1 [Compound 39, 3-(4-fluorophenoxy)-2-(4-methanesulfonylphenyl)-6-methylpyran-4-one]	75 (1) %	43.7 ± 0.4	0	0	–	–	–
> 100	1670	>59	116	COc1ccc(-c2c(-c3ccc(S(C)(=O)=O)cc3)oc(C)cc2=O)cc1Cl [Compound 31]	–	–	–	–	–	–	–
> 100	350	>285	–	Cc1cc(=O)c(Oc2ccc(Cl)cc2)c(-c2ccc(S(C)(=O)=O)cc2)o1 [Compound 41]	71 (1) %	43.4 ± 1.9	0	0	–	–	–
> 100	2100	>47	168 to 170	CS(=O)(=O)c1ccc(-c2oc(C(F)F)cc(=O)c2-c2ccc(Cl)cc2)cc1 [Compound 67, 3-(4-chlorophenyl)-6-difluoromethyl-2-(4-methanesulfonylphenyl)pyran-4-one]	–	–	–	–	–	–	–

Further lines, the molecule ahead of its results:

Structure (SMILES)	IC50 [1] [µM]	IC50 [2] [nM]	Ratio COX-1/COX-2 [2]	melting point [°C]	% Inhibition of inflammation (paw volume) [3]	Hematocrit [4, 5] [%]	Lesion index NPU (non-perforated ulcers) [4, 5]	Lesion index PU (perforated ulcers) [4, 5]	Hematocrit [4, 6] [%]	Lesion index NPU (non-perforated ulcers) [4, 6]	Lesion index PU (perforated ulcers) [4, 6]
COc1ccc2c(c1)c(CC(=O)O)c(C)n2C(=O)c1ccc(Cl)cc1 [Indomethacin, 1-(4-chlorobenzoyl)-5-methoxy-2-methylindole-3-acetic acid, reference compound]	–	–	–	–	64 (1) %	–	–	–	22.7 ± 1.6	3 (3:>25 ulcers)	3 (3:>25 ulcers)
Cc1cc(=O)c(-c2ccc(Cl)cc2)c(-c2ccc(S(C)(=O)=O)cc2)o1 [Compound 5, 3-(4-chlorophenyl)-2-(4-methanesulfonylphenyl)-6-methylpyran-4-one]	> 100	2100	>47	182	50 (1) %	44.1 ± 0.7	0	0	–	–	–
Cc1cc(=O)c(-c2ccc(Br)cc2)c(-c2ccc(S(C)(=O)=O)cc2)o1 [Compound 8, 3-(4-bromophenyl)-2-(4-methanesulfonylphenyl)-6-methylpyran-4-one]	> 100	1700	>58	198	–	–	–	–	–	–	–
Cc1cc(=O)c(-c2ccc(F)cc2)c(-c2ccc(S(C)(=O)=O)cc2)o1 [Compound 2, 3-(4-fluorophenyl)-2-(4-methanesulfonylphenyl)-6-methylpyran-4-one]	> 100	1060	>94	237	–	–	–	–	–	–	–
Cc1cc(=O)c(-c2ccccc2F)c(-c2ccc(S(C)(=O)=O)cc2)o1 [Compound 4, 3-(2-fluorophenyl)-2-(4-methanesulfonylphenyl)-6-methylpyran-4-one]	> 100	1500	>66	136 to 137	–	–	–	–	–	–	–
